Results published in paper PMC4595804, “A strategy to discover decoy chemokine ligands with an anti-inflammatory activity” (Scientific Reports, 2015).

How the values were obtained:
Format in all cases: cell-based
CCL17 = biological target: T1, CCL17 (Homo sapiens, UniProt Q92583); experiment: Scratch wound assay, CCL17-mediated HaCat cell migration; conditions: HaCat cells, 72 h, read-out: inhibition of CCL17-mediated wound closure
T1 construct: codes for the mature CCL17 or CCL22 with an N-terminal thioredoxin-hexahistidin (TRX- (His)6) tag; thioredoxin (TRX) (N, cleaved yes); (His)6 (N, cleaved yes); made in house; host or cells: E. coli BL21 (DE3)
T1 sequence (Q92583 24-94): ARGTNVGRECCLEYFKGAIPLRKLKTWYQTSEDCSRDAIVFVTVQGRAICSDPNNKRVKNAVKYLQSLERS
Experimental: (§1) soluble formazan dye which can be detected by absorbance at 420-480nm. HUT78 T cells (or HaCat cells) were seeded on 24-well plates (200,000 cells per well) and were incubated […]
(§2) concentration ≤1% on cells). The background control was reserved as one well containing the culture medium only. The plates were incubated for 72h at 37°C. Three days later, the medium containing the neutraligands was removed, and WST-1 reagent (1:10 final dilution) (Ozyme) was added to each well for a 2h incubation at 37°C as the manufacturer’s recommendation. The plates were shaken and absorbance was measured at 450nm (reference wavelength 690nm) against the background control, using a multiwell plate reader (EnVision, Perkin Elmer). Assays were performed as three independent replicates.
(§3) In vitro cell migration assay (scratch wound test) […]
(§4) the wound closure was determined as the difference between wound width at times 0 and 72h. […]
(§5) doses). After 24h, cytotoxicity was evaluated in the wells using the Alamar Blue method. […]
(§6) before AA treatment. The activity of COX2 was determined by measuring PGE2 (Cayman) in the supernatants by EIA. […]

mouse CCL17 = biological target: T2, mouse CCL17 (Mus musculus, UniProt Q9WUZ6); experiment: Calcium responses induced by mouse CCL17, neutraligand protocol, CCR4+Gqi5+ HEK cells; conditions: 5 nM mouse CCL17 preincubated 1 h with compound; read-out: IC50, inhibition of mouse CCL17-evoked calcium signaling
T2 construct: purchased R&D systems
T2 sequence (Q9WUZ6 24-93): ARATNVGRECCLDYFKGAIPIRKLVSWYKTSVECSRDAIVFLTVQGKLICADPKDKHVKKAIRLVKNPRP
Experimental: Dye loaded cells were placed in the FlexStation 3 (Molecular Devices). Calcium mobilization was measured at 401 and 475 nm emission fluorescence after excitation at 355 nm. For the primary screening, the ligands (50μl of chemokine mixed with DMSO or test compounds) were added to the cells at 40 s, followed by digitonin addition (50μl) at 100 s to the cells. Molecules were screened at a final concentration of 2μg/ml with 5 nM CCL17 or CCL22. […] Raw fluorescence data (at 401 and 475 nm) were exported and the ratio 401/475 was calculated. The calcium response values (height of peak response over baseline) were determined. Hits were selected by comparing the response amplitude at the time of the chemokine addition ± test compound. The Z’ factor[29] was calculated according to the following equation: Z’ = 1-(3SD+ + 3SD−)/|Ave+ − Ave−|, where SD+ and Ave+ are respectively the standard deviation and the mean value of the positive controls (chemokine + DMSO), while SD− and Ave− are respectively the standard deviation and the mean value of the negative controls (HEPES-BSA (0.1%) mixed with DMSO, or cells mixed with C-021). Hit molecules were confirmed by performing concentration-response curves and their half maximal inhibitory concentration (IC50) values were calculated using the Kaleidagraph software. […]
neutraligand. Human (○) or mouse (●) CCL17 (5nM) was preincubated with increasing […]

CCL22 = biological target: T3, CCL22 (Homo sapiens, UniProt O00626); experiment: Scratch wound assay, CCL22-mediated HaCat cell migration; conditions: HaCat cells, 72 h, read-out: inhibition of CCL22-mediated wound closure
T3 construct: codes for the mature CCL17 or CCL22 with an N-terminal thioredoxin-hexahistidin (TRX- (His)6) tag; thioredoxin (TRX) (N, cleaved yes); (His)6 (N, cleaved yes); made in house; host or cells: E. coli BL21 (DE3)
T3 sequence (O00626 25-93): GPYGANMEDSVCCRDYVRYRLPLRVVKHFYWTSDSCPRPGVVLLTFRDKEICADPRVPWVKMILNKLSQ
Experimental: as §1, §2, §3, §4, §5, §6

Compound	inhibition at 10 µM (CCL17)	IC50 (mouse CCL17)	inhibition at 10 µM (CCL22)
CC(C)=CCn1cnc2c1c(=O)n(C)c(=O)n2C [GPN279, 1,3-dimethyl-7-(3-methylbut-2-enyl)-1H-purine-2,6(3H, 7H)-dione]	81.4%	5.2 ± 0.9 µM	–
O=C(OCC(O)CO)c1ccccc1O (stereo not drawn) [GPN136, 2,3-dihydroxypropyl 2-hydroxybenzoate]	–	–	85.2%
